According to US20230011869A1 (Hoffmann-La Roche Inc., priority 2018, published 2023):
Where a name gives a salt, the structure may show the parent alone.

System: Acinetobacter baumannii ATCC17978
Assay: Antimicrobial susceptibility testing: 90% growth inhibitory concentration (IC90) determination, Iso-Sensitest broth
Type: cell-based
Details: 90% growth inhibitory concentration, Acinetobacter baumannii ATCC17978, Iso-Sensitest broth, OD 600 nm over 16 h; read-out: ATCC17978 IC90
Procedure, shortened: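 A. baumannii ATCC17978 grown in Iso-Sensitest broth across 10 compound concentrations at 35±2 °C.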

**Q.** With COc1ccc(-c2cnc3c(Nc4ccc(C(=O)N5CCNC(C6CC6)C5)c(C)c4)nccn23)cc1F (stereo not shown) [Example 424, (3-cyclopropylpiperazin-1-yl)-[4-[[3-(3-fluoro-4-methoxyphenyl)imidazo[1,2-a]pyrazin-8-yl]amino]-2-methylphenyl]methanone; hy-drochloride] as the compound, how does the IC90 read?
**A.** 1200 nM

**Q.** For CNCCNC(=O)C1CCN(C(=O)c2ccc(Nc3nccn4c(-c5ccc(OC)c(Cl)c5)cnc34)cc2C)CC1 [Example 112, 1-(4-((3-(3-chloro-4-methoxyphenyl)imidazo[1,2-a]pyrazin-8-yl)amino)-2-methylbenzoyl)-N-(2-(methylamino)ethyl)piperidine-4-carboxamide hydrochloride], which IC90 is on record?
**A.** 180 nM

**Q.** With COc1ccc(-c2cnc3c(Nc4ccc(C(=O)N5CCN(C(=O)C6CNC6)CC5)c(C)c4)nccn23)c(F)c1F [Example 203, [4-(azetidine-3-carbonyl)piperazin-1-yl]-[4-[[3-(2,3-difluoro-4-methoxy-phenyl)imidazo[1,2-a]pyrazin-8-yl]amino]-2-methyl-phenyl]methanone; hydrochloride] as the compound, how does the IC90 read?
**A.** 190 nM

**Q.** Which IC90 does the source give for COc1ccc(-c2cnc3c(Nc4ccc(C(=O)N5CCNCC5CO)c(C)c4)nccn23)cc1F (stereo not shown) [Example 42, (4-((3-(3-fluoro-4-methoxyphenyl)imidazo[1,2-a]pyrazin-8-yl)amino)-2-methylphenyl)(2-(hydroxymethyl)piperazin-1-yl)methanone] here?
**A.** 270 nM

**Q.** For Cc1cc(Nc2nccn3c(-c4ccc(OC(F)F)cc4)cnc23)ccc1C(=O)N1CCN(C(=O)N2CCOC(CN)C2)CC1 (stereo not shown) [Example 134, [4-[2-(aminomethyl)morpholine-4-carbonyl]piperazin-1-yl]-[4-[[3-[4-(difluoromethoxy)phenyl]imidazo[1,2-a]pyrazin-8-yl]amino]-2-methyl-phenyl]methanone hydrochloride], which IC90 is on record?
**A.** 260 nM

**Q.** Cc1cc(Nc2nccn3c(-c4ccc(OC(F)F)cc4)cnc23)ccc1C(=O)N1CCC(CCN)CC1 [Example 3, (4-(2-Aminoethyl)piperidin-1-yl)(4-((3-(4-(difluoromethoxy)phenyl)imidazo[1,2-a]pyrazin-8-yl)amino)-2-methylphenyl)methanone hydrochloride] was tested. Which IC90 did it give?
**A.** 110 nM

**Q.** Which IC90 does the source give for COc1ccc(-c2cnc3c(Nc4ccc(C(=O)N5CCN(Cc6cnc[nH]6)CC5)c(C)c4)nccn23)cc1F [Example 256, [4-[[3-(3-fluoro-4-methoxyphenyl)imidazo[1,2-a]pyrazin-8-yl]amino]-2-methylphenyl]-[4-(1H-imidazol-5-ylmethyl)piperazin-1-yl]methanone] here?
**A.** 760 nM

**Q.** With Cc1cc(Nc2nccn3c(-c4ccc(OC(F)F)cc4)cnc23)ccc1C(=O)N1CCN(C(=O)C(O)CN)CC1 (stereo not shown) [Example 255, 3-amino-1-[4-[4-[[3-[4-(difluoromethoxy)phenyl]imi-dazo[1,2-a]pyrazin-8-yl]amino]-2-methylbenzoyl]piperazin-1-yl]-2-hydroxypropan-2-one; 2,2,2-trifluoroacetc acid] as the compound, how does the IC90 read?
**A.** 730 nM

**Q.** For Cc1cc(Nc2nccn3c(-c4ccc(O[C@@H](C)C#N)c(F)c4F)cnc23)ccc1C(=O)N1CCN(C(=O)C2(O)CCNCC2)CC1 [Example 467, (2S)-2-[2,3-difluoro-4-[8-[4-[4-(4-hydroxypiperidine-4-carbonyl)piperazine-1-carbonyl]-3-methylanilino]imidazo[1,2-a]pyrazin-3-yl]phenoxy]propanenitrile; for-mic acid], which IC90 is on record?
**A.** 180 nM

**Q.** Which IC90 does the source give for CNCCCNC(=O)C1CCN(C(=O)c2ccc(Nc3nccn4c(-c5ccc(OCC#N)c(F)c5F)cnc34)cc2C)CC1 [Example 242, 1-(4-((3-(4-(cyanomethoxy)-2,3-difluorophenyl)imidazo[1,2-a]pyrazin-8-yl)amino)-2-methylbenzoyl)-N-(3-(methylamino)propyl)piperidine-4-carboxamide] here?
**A.** 170 nM

**Q.** With Cc1cc(Nc2nccn3c(-c4ccc(OCC#N)c(F)c4Cl)cnc23)ccc1C(=O)N1CCN(C(=O)N[C@H](C)CN)CC1 [Example 160, N-[(1R)-2-amino-1-methyl-ethyl]-4-[4-[[3-[2-chloro-4-(cyanomethoxy)-3-fluoro-phenyl]imidazo[1,2-a]pyrazin-8-yl]amino]-2-methyl-benzoyl]piperazine-1-carboxamide formate] as the compound, how does the IC90 read?
**A.** 100 nM

**Q.** For Cc1cc(Nc2nccn3c(-c4ccc(OC(F)F)cc4)cnc23)ccc1C(=O)N1CCC(Cn2cccn2)CC1 [Example 16, (4-((1H-pyrazol-1-yl)methyl)piperidin-1-yl)(4-((3-(4-(difluoromethoxy)phenyl)imidazo[1,2-a]pyrazin-8-yl)amino)-2-methylphenyl)methanone], which IC90 is on record?
**A.** 930 nM

**Q.** For COc1ccc(-c2cnc3c(Nc4ccc(C(=O)N5CCC(C(=O)NCC(O)C(O)CO)CC5)c(C)c4)nccn23)cc1F (stereo not shown) [Example 257, 1-[4-[[3-(3-fluoro-4-methoxyphenyl)imidazo[1,2-a]pyrazin-8-yl]amino]-2-methylbenzoyl]-N-(2,3,4-trihydroxybutyl)piperidine-4-carboxamide], which IC90 is on record?
**A.** 850 nM

**Q.** Which IC90 does the source give for Cc1cc(Nc2nccn3c(-c4ccc(OC(F)F)cc4)cnc23)ccc1C(=O)N1CCC2(CC1)CNCCO2 [Example 17, (4-((3-(4-(difluoromethoxy)phenyl)imidazo[1,2-a]pyrazin-8-yl)amino)-2-methylphenyl)(1-oxa-4,9-diazaspiro[5.5]undecan-9-yl)methanone] here?
**A.** 1300 nM

**Q.** How did the IC90 turn out when COc1ccc(-c2cnc3c(Nc4ccc(C(=O)N5CCC(C(=O)N6C[C@H](O)[C@@H](O)[C@H](O)[C@H]6CO)CC5)c(C)c4)nccn23)c(F)c1F [Example 566, (1-(4-((3-(2,3-difluoro-4-methoxyphenyl)imidazo[1,2-a]pyrazin-8-yl)amino)-2-methylbenzoyl)piperidin-4-yl)((2R,3R,4R,5S)-3,4,5-trihydroxy-2-(hydroxymethyl)piperidin-1-yl)methanone] was run?
**A.** 370 nM

**Q.** With COc1ccc(-c2cnc3c(Nc4ccc(C(=O)N5CCN(C(=O)[C@@H]6CCNC6)CC5)c(C)c4)nccn23)c(F)c1F [Example 202, (R)-(4-(4-((3-(2,3-difluoro-4-methoxyphenyl)imidazo[1,2-a]pyrazin-8-yl)amino)-2-methylbenzoyl)piperazin-1-yl) (pyrrolidin-3-yl)methanone hydrochloride] as the compound, how does the IC90 read?
**A.** 93 nM

Same assay, conditions: Acinetobacter baumannii, ATCC17978, 16 h, read-out: ATCC17978 IC90, 90% growth inhibitory concentration, Acinetobacter baumannii ATCC17978, Iso-Sensitest broth, OD 600 nm over 16 h

**Q.** Cc1cc(Nc2nccn3c(-c4ccc(OC(F)F)cc4)cnc23)ccc1C(=O)N1CCN(C(=O)C2CNC2)CC1 [Example 335, [4-(azetidine-3-carbonyl)piperazin-1-yl]-[4-[[3-[4-(difluoromethoxy)phenyl]imi-dazo[1,2-a]pyrazin-8-yl]amino]-2-methylphenyl]methanone; hy-drochloride] was tested. Which IC90 did it give?
**A.** 450 nM

**Q.** With CCC(N)C(=O)N1CCN(C(=O)c2ccc(Nc3nccn4c(-c5ccc(OC(F)F)cc5)cnc34)cc2C)CC1 (stereo not shown) [Example 344, 2-amino-1-[4-[4-[[3-[4-(difluoromethoxy)phenyl]imi-dazo[1,2-a]pyrazin-8-yl]amino]-2-methylbenzoyl]piperazin-1-yl]butan-1-one; hydrochloride] as the compound, how does the IC90 read?
**A.** 560 nM

**Q.** How did the IC90 turn out when CC(=O)NCCCC[C@H](N)C(=O)N1CCN(C(=O)c2ccc(Nc3nccn4c(-c5ccc(OC(F)F)cc5)cnc34)cc2C)CC1 [Example 338, N-[(5S)-5-amino-6-[4-[4-[[3-[4-(difluoromethoxy)phenyl]imi-dazo[1,2-a]pyrazin-8-yl]amino]-2-methylbenzoyl]piperazin-1-yl]-6-oxohexyl]acetamide; hydrochloride] was run?
**A.** 480 nM

**Q.** Which IC90 does the source give for Cc1cc(Nc2nccn3c(-c4ccc(OC(F)F)cc4)cnc23)ccc1C(=O)N1CCC(C(=O)N2CCNC(C)(C)C2)CC1 [Example 323, [4-[[3-[4-(difluoromethoxy)phenyl]imi-dazo[1,2-a]pyrazin-8-yl]amino]-2-methylphenyl]-[4-(3,3-dimethylpiperazin-1-carbonyl)piperidin-1-yl]methanone; hydrochloride] here?
**A.** 300 nM

**Q.** Cc1cc(Nc2nccn3c(-c4ccc(OC(F)F)cc4)cnc23)ccc1C(=O)N1CCN(C(=O)[C@@H]2CNCCN2)CC1 [Example 441, [4-[[3-[4-(difluoromethoxy)phenyl]imi-dazo[1,2-a]pyrazin-8-yl]amino]-2-methylphenyl]-[4-[(2S)-piperazine-2-carbonyl]piperazin-1-yl]methanone; hydrochloride] was tested. Which IC90 did it give?
**A.** 1200 nM

**Q.** For Cc1cc(Nc2nccn3c(-c4ccc(OCC#CCN)c(F)c4)cnc23)ccc1C(=O)N1CCC(CN)CC1 [Example 247, [4-[[3-[4-(4-aminobut-2-ynoxy)-3-fluoro-phenyl]imidazo[1,2-a]pyrazin-8-yl]amino]-2-methyl-phenyl]-[4-(aminomethyl)-1-piperidyl]methanone; formic acid], which IC90 is on record?
**A.** 870 nM

**Q.** Which IC90 does the source give for Cc1cc(Nc2nccn3c(-c4ccc(OC(F)F)cc4)cnc23)ccc1C(=O)N1CCN(C(=O)[C@@H](N)CCCN)CC1 [Example 513, (2S)-2,5-diamino-1-[4-[4-[[3-[4-(difluoromethoxy)phenyl]imi-dazo[1,2-a]pyrazin-8-yl]amino]-2-methylbenzoyl]piperazin-1-yl]pentan-1-one; hydrochloride] here?
**A.** 610 nM

**Q.** Which IC90 does the source give for Cc1cc(Nc2nccn3c(-c4ccc(OC(F)F)cc4)cnc23)ccc1C(=O)N1CCN(CC(=O)N(C)C)CC1 [Example 372, 2-[4-[4-[[3-[4-(difluoromethoxy)phenyl]imi-dazo[1,2-a]pyrazin-8-yl]amino]-2-methylbenzoyl]piperazin-1-yl]-N,N-dimethylacetamide] here?
**A.** 1200 nM

Same assay, conditions: read-out: ATCC17978 IC90; 90% growth inhibitory concentration, Acinetobacter baumannii ATCC17978, Iso-Sensitest broth, OD 600 nm over 16 h

**Q.** How did the IC90 turn out when Cc1cc(Nc2nccn3c(-c4ccc(OC(F)F)cc4)cnc23)ccc1C(=O)N1CCN(C(=O)CNC(=N)N)CC1 [Example 333, 1-[2-[4-[4-[[3-[4-(difluoromethoxy)phenyl]imi-dazo[1,2-a]pyrazin-8-yl]amino]-2-methylbenzoyl]piperazin-1-yl]-2-oxoethyl]guanidine] was run?
**A.** 410 nM
